One data set concerns the target T1, PDE3A (Homo sapiens, UniProt Q14432).
T1 construct: purchased BPS
The data set can be described thus: In vitro inhibitory effect on PDE3A enzyme (AMP-Glo assay). Type of data set: biochemical. The method, then:
(§1) 1. Table 1 Main reagents and consumables for in vitro detection of inhibitory effect
(§2) 2. Preparation of experimental buffers Reaction buffer (5×): 50 mM Tris-HCl (buffer), 50 mM MgCl2, 0.5% BSA, 0.25% Tween-20, pH 7.4, stored at -20°C. 3. […] The starting concentration of the reference substance serial dilution was the Low control, and 1% DMSO-reaction buffer served as the High control. • 3) The enzyme was diluted to the desired concentration with 1× reaction buffer, and 4 µL of the diluted solution was transferred to the assay plate. After centrifugation, the 384-well low dead-volume microplate was sealed with sealing film and incubated in the incubator at 23°C for 15 minutes. • 4) The substrate cAMP was diluted to the desired concentration using 1× reaction buffer, and 5 µL of the diluted solution was transferred to the assay plate. After centrifugation, the plate was sealed again and incubated in the incubator at 23°C for 60 minutes (PDE3A) or 10 minutes (PDE4B1). • 5) Then, 5 µL of Reagent I from the AMP-Glo™ Assay Kit was added to the assay plate. After centrifugation and sealing, the plate was incubated in the incubator at 23°C for 60 minutes. • 6) The detection solution was prepared according to the AMP-Glo™ Assay Kit instructions, and 10 µL of the detection solution was added to the assay plate. After centrifugation and sealing, the plate was incubated in the incubator at 23°C for 60 minutes. • 7) The readout was recorded using a multimode microplate reader. 4. […] 5.

The target of a further data set is T2, PDE4B1 (Homo sapiens, UniProt Q07343).
T2 construct: purchased Sigma
T2 sequence (Q07343 whole entry): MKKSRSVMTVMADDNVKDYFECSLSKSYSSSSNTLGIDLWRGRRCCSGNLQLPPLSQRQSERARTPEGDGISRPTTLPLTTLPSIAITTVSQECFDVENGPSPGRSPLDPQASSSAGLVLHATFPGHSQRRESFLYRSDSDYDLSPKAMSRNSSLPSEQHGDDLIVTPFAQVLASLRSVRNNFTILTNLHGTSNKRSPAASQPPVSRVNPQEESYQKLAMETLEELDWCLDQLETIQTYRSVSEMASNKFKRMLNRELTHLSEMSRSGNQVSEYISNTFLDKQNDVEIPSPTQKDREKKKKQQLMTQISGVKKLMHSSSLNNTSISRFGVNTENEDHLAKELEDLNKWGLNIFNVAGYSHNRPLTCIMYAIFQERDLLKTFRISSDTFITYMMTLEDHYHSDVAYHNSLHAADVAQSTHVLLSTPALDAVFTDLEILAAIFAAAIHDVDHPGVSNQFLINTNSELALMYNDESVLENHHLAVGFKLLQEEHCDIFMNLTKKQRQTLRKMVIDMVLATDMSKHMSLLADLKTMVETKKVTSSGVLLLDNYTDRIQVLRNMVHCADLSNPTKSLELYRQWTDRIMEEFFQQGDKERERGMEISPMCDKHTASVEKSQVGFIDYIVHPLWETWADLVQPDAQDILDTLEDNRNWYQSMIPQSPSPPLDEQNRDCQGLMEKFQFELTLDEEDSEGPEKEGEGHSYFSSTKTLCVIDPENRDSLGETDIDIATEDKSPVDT
The data set can be described thus: In vitro inhibitory effect on PDE4B1 enzyme (AMP-Glo assay). Type of data set: biochemical. The method, then:
as §1, §2

The target in the next data set is CYP1A2 (Homo sapiens, UniProt P05177). The data set can be described thus: In vitro CYP inhibition in human liver microsomes, CYP1A2.
CYP1A2, sequence (P05177 whole entry): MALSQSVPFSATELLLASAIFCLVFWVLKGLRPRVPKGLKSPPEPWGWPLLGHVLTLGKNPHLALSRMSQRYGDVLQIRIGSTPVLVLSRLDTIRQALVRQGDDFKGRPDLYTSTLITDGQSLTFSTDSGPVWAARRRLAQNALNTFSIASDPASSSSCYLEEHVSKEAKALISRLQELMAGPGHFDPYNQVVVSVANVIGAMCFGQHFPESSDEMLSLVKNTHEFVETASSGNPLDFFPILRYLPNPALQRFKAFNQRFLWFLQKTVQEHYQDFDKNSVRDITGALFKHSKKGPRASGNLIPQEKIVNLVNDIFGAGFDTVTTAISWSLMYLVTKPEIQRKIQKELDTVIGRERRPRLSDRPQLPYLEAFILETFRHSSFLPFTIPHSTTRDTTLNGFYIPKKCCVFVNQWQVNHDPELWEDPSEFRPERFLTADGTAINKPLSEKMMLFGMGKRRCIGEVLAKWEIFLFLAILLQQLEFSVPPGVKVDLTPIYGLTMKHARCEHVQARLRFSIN
For the next data set, the target named is CYP2C9 (Homo sapiens, UniProt P11712). The data set can be described thus: In vitro CYP inhibition in human liver microsomes, CYP2C9. (In general: Microsomes from liver hold many membrane-bound enzymes, among them those of drug oxidation.)
CYP2C9, sequence (P11712 whole entry): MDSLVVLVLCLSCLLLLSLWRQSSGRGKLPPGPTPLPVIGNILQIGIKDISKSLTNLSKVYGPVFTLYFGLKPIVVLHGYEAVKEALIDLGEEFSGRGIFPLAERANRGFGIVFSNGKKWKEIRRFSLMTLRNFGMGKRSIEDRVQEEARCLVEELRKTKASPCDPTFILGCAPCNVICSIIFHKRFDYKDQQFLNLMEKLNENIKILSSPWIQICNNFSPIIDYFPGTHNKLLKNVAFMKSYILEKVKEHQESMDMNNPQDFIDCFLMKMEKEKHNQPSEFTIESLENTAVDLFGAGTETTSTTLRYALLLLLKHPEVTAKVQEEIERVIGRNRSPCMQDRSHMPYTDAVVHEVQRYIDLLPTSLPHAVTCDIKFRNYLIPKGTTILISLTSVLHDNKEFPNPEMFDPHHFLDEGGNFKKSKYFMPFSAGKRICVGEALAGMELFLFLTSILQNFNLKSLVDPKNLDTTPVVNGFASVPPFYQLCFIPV
In a further data set the target is CYP2D6 (Homo sapiens, UniProt P10635). As to the kind of experiment: In vitro CYP inhibition in human liver microsomes, CYP2D6.
CYP2D6, sequence (P10635 whole entry): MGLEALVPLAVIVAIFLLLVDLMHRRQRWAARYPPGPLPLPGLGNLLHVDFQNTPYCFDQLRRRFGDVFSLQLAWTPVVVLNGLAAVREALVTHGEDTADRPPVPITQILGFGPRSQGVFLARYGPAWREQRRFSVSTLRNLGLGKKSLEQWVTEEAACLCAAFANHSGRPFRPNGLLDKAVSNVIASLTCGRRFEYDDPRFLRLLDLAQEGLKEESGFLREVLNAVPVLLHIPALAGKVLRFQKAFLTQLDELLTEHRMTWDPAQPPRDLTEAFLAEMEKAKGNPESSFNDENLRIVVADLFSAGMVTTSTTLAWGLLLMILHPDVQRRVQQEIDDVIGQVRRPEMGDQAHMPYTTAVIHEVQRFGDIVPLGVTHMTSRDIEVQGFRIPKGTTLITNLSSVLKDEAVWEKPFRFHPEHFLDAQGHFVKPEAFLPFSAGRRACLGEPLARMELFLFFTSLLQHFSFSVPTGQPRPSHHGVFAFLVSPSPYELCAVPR
The target of the next data set is CYP2C19 (Homo sapiens, UniProt P33261). As to the kind of experiment: In vitro CYP inhibition in human liver microsomes, CYP2C19.
CYP2C19, sequence (P33261 whole entry): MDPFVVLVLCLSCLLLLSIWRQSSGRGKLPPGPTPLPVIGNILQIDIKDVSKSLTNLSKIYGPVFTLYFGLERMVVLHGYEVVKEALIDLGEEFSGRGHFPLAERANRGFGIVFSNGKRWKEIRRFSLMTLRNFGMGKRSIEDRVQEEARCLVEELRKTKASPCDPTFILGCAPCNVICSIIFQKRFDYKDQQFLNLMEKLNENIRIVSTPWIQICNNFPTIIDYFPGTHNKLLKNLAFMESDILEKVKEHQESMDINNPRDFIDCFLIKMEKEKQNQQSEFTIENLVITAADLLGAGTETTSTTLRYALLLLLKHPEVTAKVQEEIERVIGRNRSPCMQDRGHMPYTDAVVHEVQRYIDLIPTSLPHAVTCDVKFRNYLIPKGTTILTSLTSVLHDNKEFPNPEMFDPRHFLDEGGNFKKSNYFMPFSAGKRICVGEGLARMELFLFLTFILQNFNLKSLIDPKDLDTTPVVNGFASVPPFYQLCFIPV
The target in a further data set is CYP3A-M (Homo sapiens, UniProt P08684). As to the kind of experiment: In vitro CYP inhibition in human liver microsomes, CYP3A-M. To be noted: microsomes.
CYP3A-M, sequence (P08684 2-503): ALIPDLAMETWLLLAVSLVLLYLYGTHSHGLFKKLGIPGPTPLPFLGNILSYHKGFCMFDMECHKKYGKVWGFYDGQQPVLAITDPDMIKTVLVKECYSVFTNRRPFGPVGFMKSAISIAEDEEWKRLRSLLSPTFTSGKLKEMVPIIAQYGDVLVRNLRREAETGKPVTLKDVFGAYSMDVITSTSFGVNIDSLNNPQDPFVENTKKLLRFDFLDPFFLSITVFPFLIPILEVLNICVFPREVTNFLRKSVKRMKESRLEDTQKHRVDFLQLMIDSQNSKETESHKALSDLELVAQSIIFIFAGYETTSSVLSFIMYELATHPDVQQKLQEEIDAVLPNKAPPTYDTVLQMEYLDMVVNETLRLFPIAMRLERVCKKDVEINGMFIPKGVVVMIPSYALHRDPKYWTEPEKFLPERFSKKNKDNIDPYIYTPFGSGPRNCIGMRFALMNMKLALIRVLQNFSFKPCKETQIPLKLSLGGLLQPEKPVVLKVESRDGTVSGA
Setting [1] is: AMP-Glo Assay Kit, substrate cAMP, 23°C, 60 minutes, read-out: PDE3A (IC50).
The mark [2] stands for this setting: AMP-Glo Assay Kit, substrate cAMP, 23°C, 10 minutes, read-out: PDE4B1 (IC50).

Where two headings read alike, the source gives them in different places.

Usually IC50 stands for the midpoint of a concentration-inhibition curve.

T1 sequence (Q14432 whole entry): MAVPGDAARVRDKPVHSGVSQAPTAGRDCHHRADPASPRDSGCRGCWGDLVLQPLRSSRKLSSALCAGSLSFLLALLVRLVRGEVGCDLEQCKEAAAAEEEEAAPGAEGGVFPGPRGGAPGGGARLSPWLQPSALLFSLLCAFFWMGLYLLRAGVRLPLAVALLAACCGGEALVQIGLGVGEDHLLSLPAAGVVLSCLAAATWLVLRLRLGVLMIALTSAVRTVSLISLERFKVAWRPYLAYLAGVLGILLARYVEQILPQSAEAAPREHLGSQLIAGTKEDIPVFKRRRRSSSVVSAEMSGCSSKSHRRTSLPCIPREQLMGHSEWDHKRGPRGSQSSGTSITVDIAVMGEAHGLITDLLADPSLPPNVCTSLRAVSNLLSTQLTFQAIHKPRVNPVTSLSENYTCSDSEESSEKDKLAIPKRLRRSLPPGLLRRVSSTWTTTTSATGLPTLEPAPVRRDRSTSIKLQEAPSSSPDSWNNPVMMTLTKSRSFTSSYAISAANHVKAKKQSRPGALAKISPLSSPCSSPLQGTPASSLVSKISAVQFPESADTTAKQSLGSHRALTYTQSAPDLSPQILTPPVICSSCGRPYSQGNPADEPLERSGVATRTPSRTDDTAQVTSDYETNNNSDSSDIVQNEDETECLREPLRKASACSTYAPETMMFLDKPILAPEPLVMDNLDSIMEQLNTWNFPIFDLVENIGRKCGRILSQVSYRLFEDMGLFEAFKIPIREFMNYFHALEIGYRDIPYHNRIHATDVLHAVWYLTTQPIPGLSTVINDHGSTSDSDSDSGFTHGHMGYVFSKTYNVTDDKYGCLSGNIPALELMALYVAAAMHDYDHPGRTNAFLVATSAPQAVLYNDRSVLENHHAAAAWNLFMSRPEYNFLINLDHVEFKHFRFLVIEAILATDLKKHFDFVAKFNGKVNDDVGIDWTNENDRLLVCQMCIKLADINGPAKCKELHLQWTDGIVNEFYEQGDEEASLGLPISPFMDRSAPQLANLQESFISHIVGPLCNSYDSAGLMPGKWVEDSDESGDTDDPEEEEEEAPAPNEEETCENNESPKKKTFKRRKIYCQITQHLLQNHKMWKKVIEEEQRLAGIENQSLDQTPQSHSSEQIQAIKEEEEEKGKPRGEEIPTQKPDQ
Description for CYP1A2: (§3) 1.1 Working solutions (100×) of sample compounds and standard inhibitors were prepared.
(§4) 1.2 Microsomes were removed from a -80°C refrigerator, thawed on ice, labeled with the date, and stored in the refrigerator immediately after use.
(§5) 1.3 20 µL of substrate solution was added to the corresponding wells, while 20 µL of PB (phosphate buffer) was added to the blank wells.
(§6) 1.4 2 µL of sample compound solution and positive control working solution were added to the appropriate wells, while 2 µL of solvent was added to inhibitor-free wells and blank wells.
(§7) 1.5 HLM (human liver microsome) working solution was prepared.
(§8) 1.6 158 µL of HLM working solution was added to all wells of the plate.
(§9) 1.7 The plate was pre-incubated in a 37°C water bath for approximately 10 minutes.
(§10) 1.8 NADPH (nicotinamide adenosine denucleotide hydro-phosphoric acid, i.e. reduced form coenzyme II) cofactor solution was prepared.
(§11) 1.9 20 µL of NADPH cofactor solution was added to all incubation wells.
(§12) 1.10 The solution was mixed and the plate was placed in 37°C water bath to incubate CYP for 10 minutes.
(§13) 1.11 At designated time points, the reaction was terminated by adding 400 µL of cold stopping solution.
(§14) 1.13 200 µL of the supernatant was transferred into 100 µL of HPLC-grade water and vortexed for 10 minutes.
(§15) 1.14 Samples were subjected to LC/MS/MS analysis.
(§16) Concentration-inhibition percentage curves of the control compound and test compounds were plotted using XL Fit or SigmaPlot, followed by nonlinear regression analysis.
(§17) IC50 values were determined using a 3 or 4 parameter logistic equation.
Description for CYP2C19: as §3, §4, §5, §6, §7, §8, §9, §10, §11, §12, §13, §14, §15, §16, §17
Description for CYP2C9: as §3, §4, §5, §6, §7, §8, §9, §10, §11, §12, §13, §14, §15, §16, §17
Description for CYP2D6: as §3, §4, §5, §6, §7, §8, §9, §10, §11, §12, §13, §14, §15, §16, §17
Description for CYP3A-M: as §3, §4, §5, §6, §7, §8, §9, §10, §11, §12, §16, §17

Consider `CCOc1cc2c(cc1OC)-c1cc(N(CCCO)c3c(C)cc(C)cc3C)nc(=O)n1CC2` [Compound 60], for which the IC50 at PDE3A is 0.0033 nM; against PDE4B1, 6.3 nM; against CYP1A2 it was more than 50000 nM; against CYP2C9, 3870 nM; at CYP2D6, more than 50000 nM; against CYP2C19, 42100 nM. Moreover, at CYP3A-M, the IC50 at 10 min is more than 50000 nM.

For the compound `CCOc1cc2c(cc1OC)-c1cc(N(CCC(=O)NCCO)c3c(C)cc(C)cc3C)nc(=O)n1CC2` [Compound 82], the IC50 against PDE3A is 0.088 nM; on PDE4B1 it was 14.2 nM; against CYP1A2, more than 50000 nM; on CYP2C9, 9350 nM; against CYP2D6 it was more than 50000 nM; at CYP2C19 it was more than 50000 nM. In addition, 42800 nM corresponded to half-maximal inhibition on CYP3A-M (IC50 at 10 min).

Consider `CCn1cccc(C(=O)NCCn2c(=Nc3c(C)cc(C)cc3C)cc3n(c2=O)CCc2cc(OC)c(OC)cc2-3)c1=O` [Compound 40], for which the values for the IC50 against PDE3A and on PDE4B1 were 1.29 nM and 82.1 nM, respectively.

In the case of `COc1cc2c(cc1OC1CCOC1)CCn1c-2cc(=Nc2c(C)cc(C)cc2C)n(CCNC(N)=O)c1=O` (centres unmarked) [Compound 25], the IC50 on PDE3A turned out to be 4.47 nM; at PDE4B1, 381 nM.

As for `CCOc1cc2c(cc1OC)-c1cc(=Nc3c(C)cc(C)cc3C)n(CCC(N)C(F)(F)F)c(=O)n1CC2` (centres unmarked) [Compound 79], the IC50 on PDE3A (setting [1]) was 0.33 nM; on PDE4B1 (setting [2]) it was 2860 nM.

As to `CCOc1cc2c(cc1OC)-c1cc(=Nc3c(C)cc(C)cc3C)n(CCNC(=O)c3cccn(C)c3=O)c(=O)n1CC2` [Compound 52], the IC50 at PDE3A came to 0.37 nM; against PDE4B1, 0.89 nM.

In the case of `COc1cc2c(cc1OC)-c1cc(=Nc3c(C)cc(C)cc3C)n(CCC(C)(C)O)c(=O)n1CC2` [Compound 17], the results for the IC50 at PDE3A (setting [1]) and at PDE4B1 (setting [2]) were 0.54 nM and 5000 nM, respectively.

For `CCOc1cc2c(cc1OC)-c1cc(=Nc3c(C)cc(C)cc3C)n(CCCN)c(=O)n1CC2` [Compound 87], the figures for the IC50 against PDE3A and on PDE4B1 were 3.02 nM and 359 nM, respectively.

As for `COc1cc2c(cc1OC)-c1cc(=Nc3c(C)cc(C)cc3C)n(CCNC(=O)N3Cc4cn(C5CC5)nc4C3)c(=O)n1CC2` [Compound 68], the IC50 turned out to be 1.82 nM against PDE3A and 334 nM against PDE4B1.

As to `CCOc1cc2c(cc1OC)-c1cc(N(CCC(=O)O)c3c(C)cc(C)cc3C)nc(=O)n1CC2` [Compound 61], the IC50 on PDE3A is 0.0061 nM; on PDE4B1, 11.1 nM; on CYP1A2, more than 50000 nM; on CYP2C9, more than 50000 nM; against CYP2D6, more than 50000 nM; on CYP2C19, more than 50000 nM. For the same compound, the IC50 at 10 min against CYP3A-M is more than 50000 nM.

Turning to `COc1cc2c(cc1OC)-c1cc(=Nc3c(C)cc(C)cc3C)n(CCNC(=O)c3cccn(C4CC4)c3=O)c(=O)n1CC2` [Compound 41], the figures for the IC50 at PDE3A and against PDE4B1 were 1.14 nM and 250 nM, respectively.

On to `COc1cc2c(cc1OC)-c1cc(N(CCNC(N)=O)c3c(C)cc(C)cc3C)nc(=O)n1CC2` [Compound 45], for which the IC50 at PDE3A was found to be 0.032 nM; against PDE4B1, 100 nM.

As to `COc1cc2c(cc1OC)-c1cc(N(CCNC(=O)c3c(O)nnn3C)c3c(C)cc(C)cc3C)nc(=O)n1CC2` [Compound 44], the IC50 at PDE3A was 0.081 nM; on PDE4B1, 223 nM.

Turning to `CCOc1cc2c(cc1OC)-c1cc(N(CCO)c3c(C)cc(C)cc3C)nc(=O)n1CC2` [Compound 75], the IC50 against CYP1A2 is more than 50000 nM; against CYP2C9, 8310 nM; against CYP2D6, more than 50000 nM; on CYP2C19, 30600 nM. At CYP3A-M, inhibition was half-maximal at 33200 nM (IC50 at 10 min).

For the compound `CCOc1cc2c(cc1OC)-c1cc(=Nc3c(C)cc(C)cc3C)n(CCNC(=O)c3ccnc(Cl)c3)c(=O)n1CC2` [Compound 29], the IC50 is 4.78 nM against PDE3A and 423 nM against PDE4B1.

As for `CCOc1cc2c(cc1OC)-c1cc(N(c3c(C)cc(C)cc3C)C3CN(C(=O)c4[nH]nnc4C)C3)nc(=O)n1CC2` [Compound 77], the IC50 was found to be 24.7 nM on PDE3A (setting [1]) and 6730 nM at PDE4B1 (setting [2]).

`CCOc1cc2c(cc1OC)-c1cc(=Nc3c(C)cc(C)cc3C)n(CCC(C)(C)O)c(=O)n1CC2` [Compound 54]: the values for the IC50 at PDE3A (setting [1]) and on PDE4B1 (setting [2]) were 0.43 nM and 697 nM, respectively.

Consider `COc1cc2c(cc1OC)-c1cc(N(c3c(C)cc(C)cc3C)C3CN(C(=O)c4nnc[nH]4)C3)nc(=O)n1CC2` [Compound 56], for which the IC50 on PDE3A (setting [1]) came out at 0.82 nM; on PDE4B1 (setting [2]) it was 8880 nM.

Consider `COc1cc2c(cc1OC)-c1cc(=Nc3c(C)cc(C)cc3C)n(CCNC(=O)N3CCOCC3CO)c(=O)n1CC2` (centres unmarked) [Compound 70], for which the IC50 at PDE3A is 1.24 nM; on PDE4B1, 2830 nM.

With `COc1cc2c(cc1OC)-c1cc(N(CCC(O)CO)c3c(C)cc(C)cc3C)nc(=O)n1CC2` (centres unmarked) [Compound 6], the IC50 on PDE3A (setting [1]) was 0.026 nM; at PDE4B1 (setting [2]), 121 nM.

As to `COc1cc2c(cc1OCC(F)(F)F)CCn1c-2cc(=Nc2c(C)cc(C)cc2C)n(CCNC(=O)c2c(O)nnn2C)c1=O` [Compound 26], the figures for the IC50 on PDE3A (setting [1]) and on PDE4B1 (setting [2]) were 0.34 nM and 419 nM, respectively.

Take `COc1cc2c(cc1OC)-c1cc(=Nc3c(C)cc(C)cc3C)n(CCC(O)CO)c(=O)n1CC2` (centres unmarked) [Compound 5]: the IC50 was 0.1 nM on PDE3A (setting [1]) and 974 nM at PDE4B1 (setting [2]).

On to `COc1cc2c(cc1OC)-c1cc(=Nc3c(C)cc(C)cc3C)n(CCNC(=O)NCCN3CCOCC3)c(=O)n1CC2` [Compound 38], for which the figures for the IC50 against PDE3A and on PDE4B1 were 1.61 nM and 1890 nM, respectively.

On to `COc1cc2c(cc1OC)-c1cc(N(CCC(C)(C)O)c3c(C)cc(C)cc3C)nc(=O)n1CC2` [Compound 18], for which the IC50 at PDE3A (setting [1]) turned out to be 0.088 nM; on PDE4B1 (setting [2]), 213 nM.

Take `CONC(=O)NCCn1c(=Nc2c(C)cc(C)cc2C)cc2n(c1=O)CCc1cc(OC)c(OC)cc1-2` [Compound 8]: the results for the IC50 against PDE3A and on PDE4B1 were 0.86 nM and 377 nM, respectively.

Consider `CCOc1cc2c(cc1OC)-c1cc(N(CCNC(=O)c3c(O)nnn3C)c3c(C)cc(C)cc3C)nc(=O)n1CC2` [Compound 43], for which the values for the IC50 against PDE3A and against PDE4B1 were 0.19 nM and 13.6 nM, respectively.

In the case of `COc1cc2c(cc1OC)-c1cc(=Nc3c(C)cc(C)cc3C)n(CCNC(N)=O)c(=O)n1CCO2` [Compound 22], the figures for the IC50 against PDE3A and against PDE4B1 were 3.3 nM and 728 nM, respectively.

Turning to `CCOc1cc2c(cc1OC)-c1cc(N(c3c(C)cc(C)cc3C)C(CO)CO)nc(=O)n1CC2` [Compound 80], the IC50 against PDE3A was 0.0028 nM; against PDE4B1, 7.4 nM; on CYP1A2, more than 50000 nM; at CYP2C9 it was 10100 nM; at CYP2D6, more than 50000 nM; on CYP2C19, 31500 nM. The same compound gave an IC50 at 10 min against CYP3A-M of 43500 nM.

In the case of `COc1cc2c(cc1OC)-c1cc(N(CCC#N)c3c(C)cc(C)cc3C)nc(=O)n1CC2` [Compound 1], the IC50 on PDE3A turned out to be 0.11 nM; against PDE4B1 it was 298 nM.

On to `COc1cc2c(cc1OC)-c1cc(N(c3c(C)cc(C)cc3C)C3CCN(C(=O)c4c(O)nnn4C)C3)nc(=O)n1CC2` (centres unmarked) [Compound 35], for which the IC50 against PDE3A came out at 0.56 nM; against PDE4B1, 1280 nM.

As for `COc1cc2c(cc1OC)-c1cc(=Nc3c(C)cc(C)cc3F)n(CCNC(N)=O)c(=O)n1CC2` [Compound 66], the figures for the IC50 at PDE3A and against PDE4B1 were 0.64 nM and 268 nM, respectively.

In the case of `CCOc1cc2c(cc1OC)-c1cc(N(CCNC(=O)c3ccccn3)c3c(C)cc(C)cc3C)nc(=O)n1CC2` [Compound 63], the IC50 was 0.042 nM at PDE3A (setting [1]) and 1.2 nM at PDE4B1 (setting [2]).

As for `COc1cc2c(cc1OC)-c1cc(=Nc3c(C)cc(C)cc3C)n(CCNC(=O)c3cccn(C)c3=O)c(=O)n1CC2` [Compound 39], the IC50 worked out at 0.72 nM at PDE3A and 18.7 nM against PDE4B1.

The values above are taken from patent EP4714952A1, “COMPOUND AND USE THEREOF” (Autobio Group Co., Ltd., priority 2023, dated 2025).
